Assay results as given in patent US20260262643A1, “HERBICIDAL BENZOXAZINES” (FMC CORPORATION, priority 2022, published 2026).

Key:
blackgrass [1] = test: Test A preemergence; type: in vivo, Alopecurus myosuroides
Procedure, shortened: (§1)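 Greenhouse pot test, 10 days. Compound (non-phytotoxic solvent, surfactant) sprayed on soil at seeding or on seedlings at one- to two-leaf stage. Visual injury rated 0–100 against untreated plants.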

ryegrass, Italian [2] = test: Test A preemergence; type: in vivo, Lolium multiflorum
Procedure, shortened: as §1

ducksalad = test: Test B flooded paddy test; type: in vivo, Heteranthera limosa; conditions: 250 g ai/ha, Flood, 13 days, 0 to 100 scale (0 no effect, 100 complete control)
Procedure, shortened: (§2)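 Visual scores from 0 (no effect) to 100 (complete kill) were assigned 13 days after treatment by comparison with controls. Seedlings had been treated at two leaves by adding compound to floodwater standing 3 cm deep, kept at that level in the greenhouse.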

corn [3] = test: Test A postemergence; type: in vivo, Zea mays; conditions: postemergence, 10 days
Procedure, shortened: as §1

ragweed [4] = test: Test A preemergence; type: in vivo, Ambrosia artemisiifolia; conditions: 125 g ai/ha, visual injury after 10 days, 0 to 100 scale, 0 is no effect, 100 is complete control
Procedure, shortened: as §1

pigweed, palmer [5] = test: Test A preemergence; type: in vivo, Amaranthus palmeri
Procedure, shortened: as §1

goosegrass [6] = test: Test A postemergence; type: in vivo, Eleusine indica; conditions: postemergence, 10 days
Procedure, shortened: as §1

sedge, umbrella = test: Test B flooded paddy test; type: in vivo, Cyperus difformis; conditions: 250 g ai/ha, Flood, 13 days, 0 to 100 scale (0 no effect, 100 complete control)
Procedure, shortened: as §2

ryegrass, Italian [7] = test: Test A postemergence; type: in vivo, Lolium multiflorum; conditions: postemergence, 10 days
Procedure, shortened: as §1

soybean [8] = test: Test A postemergence; type: in vivo, Glycine max; conditions: postemergence, 10 days
Procedure, shortened: as §1

foxtail, giant [9] = test: Test A postemergence; type: in vivo, Setaria faberi; conditions: postemergence, 10 days
Procedure, shortened: as §1

horseweed = test: Test A postemergence; type: in vivo, Erigeron canadensis; conditions: postemergence, 10 days
Procedure, shortened: as §1

barnyardgrass = test: Test B flooded paddy test; type: in vivo, Echinochloa crus-galli; conditions: 250 g ai/ha, Flood, 13 days, 0 to 100 scale (0 no effect, 100 complete control)
Procedure, shortened: as §2

oat, wild [10] = test: Test A postemergence; type: in vivo, Avena fatua; conditions: postemergence, 10 days
Procedure, shortened: as §1

soybean [11] = test: Test A preemergence; type: in vivo, Glycine max
Procedure, shortened: as §1

oat, wild [12] = test: Test A preemergence; type: in vivo, Avena fatua
Procedure, shortened: as §1

galium = test: Test A postemergence; type: in vivo, Galium aparine; conditions: postemergence, 10 days
Procedure, shortened: as §1

wheat [13] = test: Test A postemergence; type: in vivo, Triticum aestivum; conditions: postemergence, 10 days
Procedure, shortened: as §1

pigweed, palmer [14] = test: Test A postemergence; type: in vivo, Amaranthus palmeri; conditions: postemergence, 10 days
Procedure, shortened: as §1

ragweed [15] = test: Test A postemergence; type: in vivo, Ambrosia artemisiifolia; conditions: postemergence, 10 days
Procedure, shortened: as §1

foxtail, giant [16] = test: Test A preemergence; type: in vivo, Setaria faberi
Procedure, shortened: as §1

goosegrass [17] = test: Test A preemergence; type: in vivo, Eleusine indica
Procedure, shortened: as §1

kochia [18] = test: Test A postemergence; type: in vivo, Bassia scoparia; conditions: postemergence, 10 days
Procedure, shortened: as §1

blackgrass [19] = test: Test A postemergence; type: in vivo, Alopecurus myosuroides; conditions: postemergence, 10 days
Procedure, shortened: as §1

kochia [20] = test: Test A preemergence; type: in vivo, Bassia scoparia
Procedure, shortened: as §1

wheat [21] = test: Test A preemergence; type: in vivo, Triticum aestivum
Procedure, shortened: as §1

rice = test: Test B flooded paddy test; type: in vivo, Oryza sativa; conditions: 250 g ai/ha, Flood, 13 days, 0 to 100 scale (0 no effect, 100 complete control)
Procedure, shortened: as §2

corn [22] = test: Test A preemergence; type: in vivo, Zea mays
Procedure, shortened: as §1

[23] = 125 g ai/ha, visual injury after 10 days, 0 to 100 scale, 0 is no effect, 100 is complete control
[24] = 500 g ai/ha, 0 to 100 scale (0 no effect, 100 complete control), 10 days
[25] = 125 g ai/ha, 0 to 100 scale, 0 no effect, 100 complete control
[26] = 500 g ai/ha, visual injury, 0 to 100 scale (0 no effect, 100 complete control)

Structure (SMILES): C#CCOc1ccc(-n2cnc(C(C)C)n2)cc1C(=O)N1C[C@H](C)Oc2c(Cl)cccc21 [Compound 107]
- Plant response rating, Blackgrass (blackgrass [1]; [23]): 20
- Plant response rating, Blackgrass (blackgrass [1]; [24]): 40
- Plant response rating, Ryegrass, Italian (ryegrass, Italian [2]; [23]): 80
- Plant response rating, Ryegrass, Italian (ryegrass, Italian [2]; [24]): 100
- Plant response rating, Ducksalad (ducksalad): 25
- Corn plant response rating (corn [3]; [25]): 70
- Plant response rating, Corn (corn [3]; [26]): 80
- Plant response rating, Ragweed (ragweed [4]): 30
- Plant response rating, Pigweed, Palmer (pigweed, palmer [5]; [23]): 100
- Plant response rating, Pigweed, Palmer (pigweed, palmer [5]; [24]): 100
- Goosegrass plant response rating (goosegrass [6]; [25]): 70
- Plant response rating, Goosegrass (goosegrass [6]; [26]): 100
- Plant response rating, Sedge, Umbrella (sedge, umbrella): 90
- Ryegrass, Italian plant response rating (ryegrass, Italian [7]; [25]): 20
- Plant response rating, Ryegrass, Italian (ryegrass, Italian [7]; [26]): 60
- Soybean plant response rating (soybean [8]; [25]): 100
- Plant response rating, Soybean (soybean [8]; [26]): 100
- Foxtail, Giant plant response rating (foxtail, giant [9]; [25]): 90
- Plant response rating, Foxtail, Giant (foxtail, giant [9]; [26]): 100
- Horseweed plant response rating (horseweed; [25]): 20
- Plant response rating, Horseweed (horseweed; [26]): 30
- Plant response rating, Barnyardgrass (barnyardgrass): 70
- Oat, Wild plant response rating (oat, wild [10]; [25]): 30
- Plant response rating, Oat, Wild (oat, wild [10]; [26]): 70
- Plant response rating, Soybean (soybean [11]; [23]): 50
- Plant response rating, Soybean (soybean [11]; [24]): 70
- Plant response rating, Oat, Wild (oat, wild [12]; [23]): 60
- Plant response rating, Oat, Wild (oat, wild [12]; [24]): 70
- Galium plant response rating (galium; [25]): 100
- Plant response rating, Galium (galium; [26]): 100
- Wheat plant response rating (wheat [13]; [25]): 30
- Plant response rating, Wheat (wheat [13]; [26]): 30
- Pigweed, Palmer plant response rating (pigweed, palmer [14]; [25]): 90
- Plant response rating, Pigweed, Palmer (pigweed, palmer [14]; [26]): 100
- Ragweed plant response rating (ragweed [15]; [25]): 50
- Plant response rating, Ragweed (ragweed [15]; [26]): 70
- Plant response rating, Foxtail, Giant (foxtail, giant [16]; [23]): 100
- Plant response rating, Foxtail, Giant (foxtail, giant [16]; [24]): 100
- Plant response rating, Goosegrass (goosegrass [17]; [23]): 100
- Plant response rating, Goosegrass (goosegrass [17]; [24]): 100
- Kochia plant response rating (kochia [18]; [25]): 80
- Plant response rating, Kochia (kochia [18]; [26]): 90
- Blackgrass plant response rating (blackgrass [19]; [25]): 60
- Plant response rating, Blackgrass (blackgrass [19]; [26]): 80
- Plant response rating, Kochia (kochia [20]; [23]): 20
- Plant response rating, Kochia (kochia [20]; [24]): 80
- Plant response rating, Wheat (wheat [21]; [23]): 0
- Plant response rating, Wheat (wheat [21]; [24]): 40
- Plant response rating, Rice (rice): 20
- Plant response rating, Corn (corn [22]; [23]): 10
- Plant response rating, Corn (corn [22]; [24]): 50
